What all share (experiment): Field trial in flooded transplanted rice, % visual weed control
Holding throughout (type): in vivo

Assay [1] has as its system Echinochloa crus-galli (barnyard grass, ECHCG). Conditions: 42 days. From the text: (§1) The (a) penoxsulam or an agriculturally acceptable salt thereof is mixed with or applied in combination with (b) mefenacet or an agriculturally acceptable salt thereof in an amount sufficient to induce a synergistic herbicidal effect. […] As described in the Herbicide Handbook of the Weed Science Society of America, Ninth Edition, 2007, p. 429, ′″synergism′ [is] an interaction of two or more factors such that the effect when combined is greater than the predicted effect based on the response to each factor applied separately.” Synergistic in the herbicide context can mean that the use of (a) and (b) as defined above results in an increased weed control effect compared to the weed control effects that are possible with the use of (a) or (b) alone. In some embodiments, the damage or injury to the undesired vegetation caused by the compositions and methods disclosed herein is evaluated using a scale from 0% to 100%, when compared with the untreated control vegetation, wherein 0% indicates no damage to the undesired vegetation and 100% indicates complete destruction of the undesired vegetation. […] 22 (1967)
(§2) Field trials were conducted in Japan with applications made in the area of naturally occurring weed populations. All treatments were applied using a randomized complete block trial design, with 3 replications per treatment. Plot size was 2 meters (m)×2 m (width×length), with each plot being a separate entity and flooded with water. Rice was transplanted into the plots, and the rice crop was maintained as a normal commercial crop with appropriate fertilizer and maintenance treatments as needed. Rice size at application varied from 4 leaf to 2 tiller stage, and weeds were 1 to 5 leaf stage. All plots were maintained flooded to 3 to 6 centimeter (cm) depth and treatments were applied by hand directly into the flooded plots containing the rice and weeds.
(§3) Treatments consisted of penoxsulam and mefenacet, applied alone or in combination. Penoxsulam was applied as a granule formulation (3.5 grams of active ingredient per kilogram (g ai/kg) granule (GR)) applied directly into the flooded plots, or as a liquid formulation (31 grams of active ingredient per liter (g ai/L) emulsifiable concentrate (EC)) mixed in 1 liter (L) of solution and applied into the flooded plots. Mefenacet, as the commercial product HINOCHLOA® containing 40 g ai/kg GR, was applied directly into the flooded plots.
(§4) The treated plots and control plots were rated blind at various intervals after application. Ratings were based on a scale of 0-100%, as discussed above, wherein 0% indicates complete growth of the undesired vegetation and 100% indicates complete prevention of the undesired vegetation.
(§5) Colby's equation was used to determine the herbicidal effects expected from the mixtures, as described above. The results were measured at the evaluation intervals provided in Table 1 after the application of the compositions (penoxsulam and mefenacet, applied alone or in combination). […] The herbicide tank mix combinations tested, application rates and ratios employed, plant species tested, and results are included in Table 1 below.

Assay [2] concerns Eleocharis kuroguwai (kuro-guwai, ELOKU).
Description: as §1, §2, §3, §4, §5

Assay [3] relates to Lindernia procumbens (common false pimpernel, LIDPY). The following applies: for Penoxsulam Mean % weed control: 18 g ai/ha.
Description: as §1, §2, §3, §4, §5

Assay [4] has as its system Sagittaria pygmaea (dwarf arrowhead, SAGPY). The following applies: 44 days.
Description: as §1, §2, §3, §4, §5

Take `CN(C(=O)COc1nc2ccccc2s1)c1ccccc1` [Mefenacet, 2-(2-benzothiazolyloxy)-N-methyl-N-phenylacetamide]: the “Mefenacet Mean % weed control” value in assay [1] (750 g ai/ha) came out at 40%; in assay [2] (34 days, 500 g ai/ha), 0%; in assay [2] (34 days, 750 g ai/ha), 0%; in assay [2] (34 days, 1000 g ai/ha), 0%; in assay [2] (44 days, 1000 g ai/ha) it was 23%; in assay [2] (52 days, 750 g ai/ha), 33%. The “Mefenacet Mean % weed control” value was 20% in assay [2] (52 days, 1000 g ai/ha); 0% in assay [2] (61 days, 1000 g ai/ha); 43% in assay [3] (18 days, 500 g ai/ha); 50% in assay [3] (18 days, 750 g ai/ha); 57% in assay [3] (18 days, 1000 g ai/ha); 0% in assay [3] (23 days, 500 g ai/ha). Besides, the “Mefenacet Mean % weed control” value in assay [3] (23 days, 750 g ai/ha) stood at 27%; in assay [3] (24 days, 500 g ai/ha) it was 0%; in assay [3] (42 days, 500 g ai/ha), 0%; in assay [4] (500 g ai/ha) it was 0%; in assay [4] (750 g ai/ha), 0%.
Consider `COc1cnc(OC)n2nc(NS(=O)(=O)c3c(OCC(F)F)cccc3C(F)(F)F)nc12` [Penoxsulam], for which the “Penoxsulam Mean % weed control” value was 81% in assay [1] (18 g ai/ha); 62% in assay [2] (34 days, 18 g ai/ha); 81% in assay [2] (44 days, 70 g ai/ha); 34% in assay [2] (52 days, 18 g ai/ha); 62% in assay [2] (52 days, 35 g ai/ha); 71% in assay [2] (52 days, 70 g ai/ha). The “Penoxsulam Mean % weed control” value in assay [2] (61 days, 35 g ai/ha) was determined as 49%; in assay [2] (61 days, 70 g ai/ha) it was 61%; in assay [3] (18 days), 73%; in assay [3] (23 days) it was 87%; in assay [3] (24 days) it was 86%; in assay [3] (42 days) it was 83%. Also, in assay [4] (35 g ai/ha), the “Penoxsulam Mean % weed control” value is 82%.

For the origin of these results see US9930889B2, “Synergistic weed control from applications of penoxsulam and mefenacet” (Dow AgroSciences LLC, priority 2012, dated 2018).
